# Patent publication US8034574B2, “Screening method for prokinetic agent” (Astellas Pharma Inc., priority 2006, dated 2011)
# “Also recorded” adds a separate entry of the source.
# Key:
# [1] = target: T1, human TRPA1 (polypeptide of SEQ ID NO:2) (Homo sapiens, UniProt O75762, K186N/R3C/R58T); test: Intracellular calcium by FLIPR in CHO-K1 cells expressing human TRPA1 (activator screening); assay type: cell-based; conditions: CHO-K1 cells expressing human TRPA1; FLIPR, Fluo3-AM
# T1 construct: expressed in transfected cells; host or cells: CHO-K1 cells, transient transfection of the pcDNA3.1(+) human TRPA1 vector
# T1 sequence (O75762 whole entry R3C/R58T/K186N): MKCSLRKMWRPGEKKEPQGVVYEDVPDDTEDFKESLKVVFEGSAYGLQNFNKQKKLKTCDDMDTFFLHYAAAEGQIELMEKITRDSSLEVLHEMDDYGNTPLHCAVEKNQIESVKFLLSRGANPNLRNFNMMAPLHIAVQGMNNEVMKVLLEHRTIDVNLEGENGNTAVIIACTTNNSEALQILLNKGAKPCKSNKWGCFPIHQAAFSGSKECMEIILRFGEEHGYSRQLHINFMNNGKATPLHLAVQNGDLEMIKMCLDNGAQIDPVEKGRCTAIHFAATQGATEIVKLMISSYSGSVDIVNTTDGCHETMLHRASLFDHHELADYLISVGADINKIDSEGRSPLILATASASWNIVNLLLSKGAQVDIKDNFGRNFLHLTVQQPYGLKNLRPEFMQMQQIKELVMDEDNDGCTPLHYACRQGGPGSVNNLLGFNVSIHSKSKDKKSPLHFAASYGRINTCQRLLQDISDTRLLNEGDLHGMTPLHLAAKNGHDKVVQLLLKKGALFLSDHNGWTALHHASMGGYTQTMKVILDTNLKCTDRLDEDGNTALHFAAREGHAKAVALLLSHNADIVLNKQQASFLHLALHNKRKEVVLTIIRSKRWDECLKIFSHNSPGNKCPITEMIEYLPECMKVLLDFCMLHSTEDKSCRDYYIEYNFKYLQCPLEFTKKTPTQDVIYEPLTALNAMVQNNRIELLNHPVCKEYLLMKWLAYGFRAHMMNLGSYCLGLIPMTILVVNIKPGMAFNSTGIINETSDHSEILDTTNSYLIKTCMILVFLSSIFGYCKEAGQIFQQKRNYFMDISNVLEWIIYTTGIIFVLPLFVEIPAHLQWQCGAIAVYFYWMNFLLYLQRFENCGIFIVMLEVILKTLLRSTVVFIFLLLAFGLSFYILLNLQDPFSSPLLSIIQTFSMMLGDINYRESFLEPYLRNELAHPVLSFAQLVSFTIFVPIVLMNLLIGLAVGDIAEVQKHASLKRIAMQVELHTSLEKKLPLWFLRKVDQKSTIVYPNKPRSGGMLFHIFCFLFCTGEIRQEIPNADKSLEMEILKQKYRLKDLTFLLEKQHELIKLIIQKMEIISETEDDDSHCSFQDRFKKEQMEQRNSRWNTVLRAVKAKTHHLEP
# Protocol: To detect the TRPA1 channel activity of a polypeptide consisting of the amino acid sequence shown by SEQ ID NO:2, the expression vector obtained in Example 1 above was transfected to animal cells, whereby the aforementioned protein was expressed.
# Various test samples were added to CHO-K1 cells forced to is transiently express TRPA1 by the transfection operation of Example 2 above, and the resulting changes in intracellular calcium concentration were measured using FLIPR (Molecular Device).
# To measure the changes in intracellular calcium concentration by FLIPR, the following pre-treatment was performed. First, an assay buffer for adding the fluorescent dye Fluo3-AM (DOJIN) to the cells, or for washing the cells just before performing the FLIPR assay, was prepared. To a solution prepared by adding 20 ml of 1M HEPES (pH 7.4) (Invitrogen) to 1000 ml of HBSS (Invitrogen) (hereinafter, HBSS/HEPES solution), 10 ml of a solution prepared by dissolving 710 mg of probenecid (Sigma) in 5 ml of 1N NaOH and then adding 5 ml of the HBSS/HEPES solution, was added and mixed, and this solution was used as the assay buffer. Next, 50 μg of Fluo3-AM was dissolved in 22 μl of DMSO (DOJIN), and an equal volume of 20% pluronic acid (Molecular Probes) was added and mixed, after which this mixture was added to 10.6 ml of the assay buffer supplemented with 105 μl of fetal bovine serum, whereby a fluorescent dye solution was prepared. […] After this pretreatment was performed, changes in intracellular calcium concentration after addition of the various test samples were measured with the FLIPR.
# Compounds that activate a polypeptide consisting of the amino acid sequence shown by SEQ ID NO:2 (activators) were screened for. As an index of activation, calcium inflow in the cells was detected using a calcium-sensitive fluorescent reagent; specifically, the method described in Example 3 was used.
# [2] = system: CHO-K1 cells not expressing the polypeptide shown by SEQ ID NO:2; test: Intracellular calcium by FLIPR in negative control CHO-K1 cells; assay type: cell-based; conditions: CHO-K1 cells not expressing TRPA1
# [3] = system: RIN14B cells; test: Channel activity in RIN14B cells using calcium-sensitive fluorescent reagent (FLIPR); assay type: cell-based, rat; conditions: RIN14B cells, Fluo3-AM
# Protocol: RIN14B cells (5×10^4 cells), wherein the expression of TRPA1 was confirmed in Example 10, were incubated in the presence of a calcium-sensitive fluorescent reagent (Fluo3-AM; DOJINDO) at 37° C. for 1 hour to thereby incorporate the calcium-sensitive fluorescent reagent in the cells, after which the cells were washed with physiological saline to remove the calcium-sensitive fluorescent reagent that had not been incorporated in the cells. To the cells obtained, physiological saline supplemented with allyl isothiocyanate, cinnamic aldehyde, or acrolein was added; the fluorescence emitted by the cells was measured over time. The above-described measurements were performed using an automated fluorescence detection apparatus (FLIPR; Molecular Device). […] Ruthenium Red was added concurrently and a measurement was performed to determine whether or not calcium inflow in the cells was be inhibited.
# [4] = system: RIN14B cells; test: Serotonin secretion from RIN14B cells (immunoassay); assay type: cell-based, rat; conditions: 20 minutes culture
# Protocol: After RIN14B cells in culture in a Petri dish were detached using a PBS containing 1 mM EDTA, they were sown to a 96-well plate and cultured for 2 days. The medium used was RPMI1640 (Invitrogen Japan K.K.) supplemented with 10% fetal bovine serum (ICN), 100 U/ml penicillin, and 100 μg/ml streptomycin. After the cells were once washed with Hanks' Balanced Salt Solutions (HBSS, Invitrogen) supplemented with 0.1% BSA and 10 μM fluoxetine (TOCRIS), each TRPA1 activator, previously diluted/prepared with the above-described HBSS, was added, and the RIN14B cells were cultured at 37° C. in the presence of 5% CO2 for 20 minutes. After the cultivation, the cell supernatant was recovered, and stored under freezing. The serotonin content in the supernatant was measured using a commercially available serotonin immunoassay kit (Beckman).
# [5] = system: guinea pig ileum; test: Isolated guinea pig gut constriction (Magnus, ileum)
# Protocol: Guinea pigs (Hartley strain, male, weighing 300-400 g), under ether anesthesia, were exsanguinated to death by cutting the carotid artery. The ileum was extirpated, about 15-cm portions at both ends were removed, a section 1.5 cm long was cut out from the remaining portion, and incisions were made longitudinally parallelly in the gut to prepare a tabular specimen. This specimen was sandwiched with serrefine at both ends, and suspended with a thread in a Magnus chamber containing 10 ml of a 37° C. Krebs solution (118 mM NaCl, 4.7 mM KCl, 2.5 mM CaCl2, 1.2 mM MgSO4, 1.2 mM KH2PO4, 11 mM D-glucose, 20 mM NaHCO3) aerated with 95% O2-5% CO2 mixed gas. A 1-g load was applied to the specimen, buffers were exchanged at 15-minute intervals, and the specimen was allowed to stand for about 60 minutes to stabilize its tension. Changes in the tension in response to agonist stimulation were measured isometrically, and recorded on a recorder. Acetylcholine, 10^−5 M, was administered to induce contraction of the ileum specimen; after the contraction maximized, the bath was washed three times to purge out the acetylcholine. This operation was repeated at 10-minute intervals, and after the induced contraction stabilized two consecutive times, each test substance was administered. By comparing the contractile forces produced by acetylcholine and the test substance, the effect of the test substance was evaluated. One specimen was investigated only at one concentration of the test substance. […] From the results above, it was shown that the TRPA1 activator induced gut contraction.
# The serotonin receptor antagonists used were pizotifen maleate (10 μM), a 5-HT1,2 receptor antagonist, ketanserin tartrate (0.1 μM), a 5-HT2 receptor antagonist, ramosetron hydrochloride (0.3 μM), a 5-HT3 receptor antagonist, and GR113808 (0.3 μM), a 5-HT4 receptor antagonist.
# The inhibitory actions of various serotonin receptor antagonists on contraction upon stimulation with acrolein (300 μM) were investigated in the same manner. […] From the results above, it was shown that serotonin was released upon stimulation with acrolein to induce contraction via serotonin receptors such as 5-HT1 receptor and 5-HT3 receptor.
# [6] = system: mouse ileum loop water secretion; test: Mouse gut water secretion (ileum loop); assay type: in vivo; conditions: 6 hours; for water secretion from the gut: mouse ileum loop, 10, 100, 1,000 μg
# Protocol: Mice (ddy, male, 35-42 g, SLC), fasted overnight, were anesthetized with pentobarbital (50 mg/kg i.p.) and laparotomized, and ileum tissue about 2 cm in the vicinity of the cecum was ligated with a thread at both ends to prepare an ileum loop. […] After the administration, the gut was returned to the original position, and the abdominal muscle and the skin were sutured. Six hours after the treatment, each mouse was killed by cervical dislocation, after which the ileum loop was extirpated, and the content was weighed.
# [7] = system: mouse constipation model; test: Loperamide-induced mouse constipation model (bead discharge time); assay type: in vivo; conditions: loperamide 0.3 mg/kg s.c., 0.01 to 1 mg/kg oral
# Protocol: Because loperamide, a μ opioid receptor agonist, induces convulsive contraction in the gut and causes a delay of gut transportation, this experimental system is thought to be an experimental model of constipation type irritable bowel syndrome.
# Mice (ddY, male, 5-week-old, SLC) were fasted from afternoon of the day before the experiment; on the day of the experiment, the mice were acclimated to the measurement cage for 1 hour or more, after which loperamide, 0.3 mg/kg, was administered subcutaneously. […] The mouse was returned to the measurement cage, and time from awakening to discharge of the glass beads was measured.
# [8] = system: dog digestive tract movement; test: Dog digestive tract movement by strain gauge force transducer method
smiles,measurement,setting,value
C=CCN=C=S [allyl isothiocyanate],change in intracellular calcium concentration,[1],responded specifically (elevation of intracellular calcium concentration)
same,elevation of fluorescence intensity in negative control cells,[2],none of these compounds produced an elevation of fluorescence intensity
same,elevation of fluorescence intensity (calcium inflow) in RIN14B cells,[3],an elevation of fluorescence intensity was detected
same,serotonin secretion from RIN14B cells,[4],serotonin secretion was promoted; also recorded: concentration-dependently promoted the release of serotonin
same,EC50,"[5]; Cavia porcellus, read-out: EC50(μM) †",129 µM
same,Action,[5]; Magnus (guinea pig ileum),Contraction
same,"water secretion accentuating action, 1,000 μg dose group","[6]; mouse ileum loop, 1,000 μg",significant water secretion accentuating action observed
same,water secretion from the gut,[6],dose-dependently accentuated water secretion from the gut
same,water secretion from the gut,[6]; listed as Allyl isothiocyanate,concentration-dependently accentuated water secretion compared to the vehicle control
same,bead discharge time,[7],dose-dependently ameliorated the delay of bead discharge time by loperamide; also recorded: concentration-dependently shortened bead discharge time compared to the vehicle control
same,induction of GMC,[8]; oral,induced GMC
same,time after administration to induction of colon GMC (Giant migrating contraction),"[8]; oral, 1, 10 mg/kg",≤ 10 min
same,stomach movement,"[8]; oral, just after administration",accentuated stomach movement just after administration
